# Earlier results as cited in patent US20170172145A1, “COMPOSITIONS COMPRISING AN AMIDE” (The Procter & Gamble Company, priority 2015, published 2017).
row,SMILES,pKa
1,CCCCCCC(=O)O [heptanoic acid],5.1
2,O=C(O)/C=C/c1ccc(O)cc1 [p-coumaric acid],4.6
3,OCl [hypochlorous acid],7.0
4,CCCCCCCCC(=O)O [nonanoic acid],5.2
